{"source": "patent US20020110815A1", "about": "“Novel genes, compositions and methods for the identification, assessment, prevention, and therapy of human cancers” (priority 2000, published 2002)", "key": {"[1]": {"system": "TAXOL resistant cancer cell lines", "assay": "TAXOL growth inhibition (GI50), mean of TAXOL resistant cell lines", "assay_type": "cell-based, human", "conditions": "mean of the nine TAXOL resistant cell lines of Table B", "experimental": "(§1) One group of nine cell lines was determined to be sensitive to TAXOL (Table C), the other group of nine cell lines was determined to be resistant to TAXOL (Table B). Sensitivity to TAXOL was based on known GI50 values for these cells, which for this study was defined as the concentration of TAXOL required to inhibit growth of the cell line by 50%. More precisely, the quantity used in the calculation is the potency measure −log {GI50}. Pooled RNA from TAXOL sensitive cancer cell lines was used as tester against driver RNA pooled from TAXOL resistant cancer cell lines. The results of this subtractive library are shown in SEQ ID NOS: 1-127, SEQ ID NOS: 398-517 and SEQ ID NOS: 746-841. Pooled RNA from TAXOL resistant cancer cell lines was used as tester against driver RNA pooled from TAXOL sensitive cancer cell lines. The results of this subtractive library are shown in SEQ ID NOS: 128-397, SEQ ID NOS: 518-745 and SEQ ID NOS: 842-1046."}, "[2]": {"system": "MCF-7/AdrRes", "conditions": "breast, TAXOL resistant cell line; cited from earlier work"}, "[3]": {"system": "SK-MEL-2", "conditions": "SK-MEL-2, melanoma, TAXOL sensitive cell line; cited from earlier work"}, "[4]": {"system": "EKVX", "conditions": "non-small cell lung carcinoma, TAXOL resistant cell line; cited from earlier work"}, "[5]": {"system": "T-47D", "conditions": "breast, TAXOL resistant cell line; cited from earlier work"}, "[6]": {"system": "TAXOL sensitive cancer cell lines", "assay": "TAXOL growth inhibition (GI50), mean of TAXOL sensitive cell lines", "assay_type": "cell-based", "conditions": "Homo sapiens; mean of the nine TAXOL sensitive cell lines of Table C; read-out: Log GI 50 for TAXOL (Mean) (converted)", "experimental": "as §1"}, "[7]": {"system": "MCF-7", "conditions": "MCF-7, breast, TAXOL sensitive cell line; cited from earlier work"}, "[8]": {"system": "MDA-MB-435", "conditions": "MDA-MB-435, breast, TAXOL sensitive cell line; cited from earlier work"}, "[9]": {"system": "ACHN", "conditions": "renal, TAXOL resistant cell line; cited from earlier work"}, "[10]": {"system": "HT-29", "conditions": "HT-29, colon, TAXOL sensitive cell line; cited from earlier work"}, "[11]": {"system": "NCI-H522", "conditions": "NCI-H522, non-small cell lung carcinoma, TAXOL sensitive cell line; cited from earlier work"}, "[12]": {"system": "SN12C", "conditions": "renal, TAXOL sensitive cell line; cited from earlier work"}, "[13]": {"system": "MALME-3M", "conditions": "melanoma, TAXOL resistant cell line; cited from earlier work"}, "[14]": {"system": "SK-MEL-5", "conditions": "SK-MEL-5, melanoma, TAXOL sensitive cell line; cited from earlier work"}, "[15]": {"system": "OVCAR-3", "conditions": "OVCAR-3, ovarian, TAXOL sensitive cell line; cited from earlier work"}, "[16]": {"system": "HCT-15", "conditions": "HCT-15, colon, TAXOL resistant cell line; cited from earlier work"}, "[17]": {"system": "SK-MEL-28", "conditions": "SK-MEL-28, melanoma, TAXOL resistant cell line; cited from earlier work"}, "[18]": {"system": "HOP-92", "conditions": "HOP-92, non-small cell lung carcinoma, TAXOL resistant cell line; cited from earlier work"}, "[19]": {"system": "OVCAR-4", "conditions": "OVCAR-4, ovarian, TAXOL resistant cell line; cited from earlier work"}, "[20]": {"system": "NCI-H460", "conditions": "NCI-H460, non-small cell lung carcinoma, TAXOL sensitive cell line; cited from earlier work"}, "[21]": {"system": "tumor", "conditions": "animal models; cited from earlier work"}}, "data": [{"smiles": "CC(=O)O[C@H]1C(=O)[C@@]2(C)[C@H]([C@H](OC(=O)c3ccccc3)[C@]3(O)C[C@H](OC(=O)[C@H](O)[C@@H](NC(=O)c4ccccc4)c4ccccc4)C(C)=C1C3(C)C)[C@]1(OC(C)=O)CO[C@@H]1C[C@@H]2O", "note": "[TAXOL]", "values": [{"measurement": "Log GI 50 for TAXOL (Mean)", "setting": "[1]", "value": "−6.5"}, {"measurement": "Log GI 50 for TAXOL", "setting": "[2]", "value": "−5.5"}, {"measurement": "Log GI 50 for TAXOL", "setting": "[3]", "value": "−8.3"}, {"measurement": "Log GI 50 for TAXOL", "setting": "[4]", "value": "−6.6"}, {"measurement": "Log GI 50 for TAXOL", "setting": "[5]", "value": "−6.9"}, {"measurement": "GI50", "setting": "[6]", "value": 3.16, "unit": "nM"}, {"measurement": "Log GI 50 for TAXOL", "setting": "[7]", "value": "−8.5"}, {"measurement": "Log GI 50 for TAXOL", "setting": "[8]", "value": "−8.6"}, {"measurement": "Log GI 50 for TAXOL", "setting": "[9]", "value": "−5.8"}, {"measurement": "Log GI 50 for TAXOL", "setting": "[10]", "value": "−8.6"}, {"measurement": "Log GI 50 for TAXOL", "setting": "[11]", "value": "−8.5"}, {"measurement": "Log GI 50 for TAXOL", "setting": "[12]", "value": "−8.5"}, {"measurement": "Log GI 50 for TAXOL", "setting": "[13]", "value": "−6.8"}, {"measurement": "Log GI 50 for TAXOL", "setting": "[14]", "value": "−8.4"}, {"measurement": "Log GI 50 for TAXOL", "setting": "[15]", "value": "−8.5"}, {"measurement": "Log GI 50 for TAXOL", "setting": "[16]", "value": "−6.7"}, {"measurement": "Log GI 50 for TAXOL", "setting": "[17]", "value": "−7.1"}, {"measurement": "Log GI 50 for TAXOL", "setting": "[18]", "value": "−7.2"}, {"measurement": "Log GI 50 for TAXOL", "setting": "[19]", "value": "−6.3"}, {"measurement": "Log GI 50 for TAXOL", "setting": "[20]", "value": "−8.5"}]}, {"smiles": "CC(=O)O[C@@]12CO[C@@H]1C[C@H](O)[C@@]1(C)C(=O)[C@H](O)C3=C(C)[C@@H](OC(=O)[C@H](O)[C@@H](NC(=O)OC(C)(C)C)c4ccccc4)C[C@@](O)([C@@H](OC(=O)c4ccccc4)[C@H]21)C3(C)C", "note": "[Taxotere, docetaxel]", "values": [{"measurement": "anti-tumor activity", "setting": "[21]", "value": "good anti-tumor activity"}]}]}
